Patent US9283222B2 (priority 2006, dated 2016)

Molecular target: Recombinant Human Poly(ADP-Ribose) Polymerase (PARP), PARP-1 (Homo sapiens (Human), UniProt P09874)
Details: read-out: PARP-1 (Ki); Table 1; text calls the values EC50s

Sequence of Recombinant Human Poly(ADP-Ribose) Polymerase (PARP), PARP-1 (P09874 whole entry): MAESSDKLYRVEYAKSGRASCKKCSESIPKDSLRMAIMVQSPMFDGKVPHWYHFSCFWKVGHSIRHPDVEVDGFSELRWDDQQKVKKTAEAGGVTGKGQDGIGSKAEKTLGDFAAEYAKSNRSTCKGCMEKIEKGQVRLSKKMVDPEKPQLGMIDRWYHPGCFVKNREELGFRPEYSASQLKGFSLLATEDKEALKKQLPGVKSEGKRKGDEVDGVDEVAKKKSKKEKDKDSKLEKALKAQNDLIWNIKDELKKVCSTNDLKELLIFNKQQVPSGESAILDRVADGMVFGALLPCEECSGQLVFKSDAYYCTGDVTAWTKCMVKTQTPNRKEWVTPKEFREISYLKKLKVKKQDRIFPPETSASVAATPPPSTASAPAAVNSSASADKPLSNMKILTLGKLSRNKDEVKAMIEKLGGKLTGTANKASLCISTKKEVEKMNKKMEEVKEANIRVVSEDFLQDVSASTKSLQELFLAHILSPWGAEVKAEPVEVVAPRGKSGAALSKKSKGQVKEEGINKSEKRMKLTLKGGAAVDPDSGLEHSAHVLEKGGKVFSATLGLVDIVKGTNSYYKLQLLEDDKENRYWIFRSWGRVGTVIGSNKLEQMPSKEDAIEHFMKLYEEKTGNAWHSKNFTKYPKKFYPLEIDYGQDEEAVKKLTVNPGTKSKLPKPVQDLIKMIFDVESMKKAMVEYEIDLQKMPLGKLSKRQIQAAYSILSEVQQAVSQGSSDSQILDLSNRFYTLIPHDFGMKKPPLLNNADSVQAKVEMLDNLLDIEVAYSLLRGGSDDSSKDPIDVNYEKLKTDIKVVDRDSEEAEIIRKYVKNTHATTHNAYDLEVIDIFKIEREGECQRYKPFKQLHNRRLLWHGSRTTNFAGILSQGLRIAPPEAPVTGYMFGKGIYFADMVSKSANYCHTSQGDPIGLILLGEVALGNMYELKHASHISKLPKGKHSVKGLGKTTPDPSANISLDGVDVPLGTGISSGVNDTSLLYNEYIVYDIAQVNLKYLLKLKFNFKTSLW

SMILES | Ki [nM]
O=C(NC1CCN(C(=O)c2cc(Cc3n[nH]c(=O)c4c3NCCC4)ccc2F)CC1)c1ccc2cn[nH]c2c1 [Example 749, N-(1-{2-fluoro-5-[(5-oxo-1,2,3,4,5,6-hexahydropyrido[2,3-d]pyridazin-8-yl)methyl]benzoyl}piperidin-4-yl)-1H-indazole-6-carboxamide] | 1.4
O=C(c1cccc(Cc2n[nH]c(=O)c3c2CCCC3)c1)N1CCN(CCO)CC1 [Example 439, 4-(3-((4-(2-hydroxyethyl)piperazin-1-yl)carbonyl)benzyl)-5,6,7,8-tetrahydrophthalazin-1(2H)-one] | 8
O=C(Nc1cccc(Cc2n[nH]c(=O)c3c2CCCC3)c1)[C@H](O)CCc1ccccc1 [Example 164, (2R)-2-hydroxy-N-(3-((4-oxo-3,4,5,6,7,8-hexahydrophthalazin-1-yl)methyl)phenyl)-4-phenylbutanamide] | 28
COC(=O)c1ncccc1Cc1n[nH]c(=O)c2c1CCCC2 [Example 85, methyl 3-((4-oxo-3,4,5,6,7,8-hexahydrophthalazin-1-yl)methyl)pyridine-2-carboxylate] | 396
O=C(c1ccccc1-c1cc(CCc2n[nH]c(=O)c3c2CCCC3)ccc1F)N1CCCC1 [Example 268, 4-(2-(6-fluoro-2′-(pyrrolidin-1-ylcarbonyl)-1,1′-biphenyl-3-yl)ethyl)-5,6,7,8-tetrahydrophthalazin-1(2H)-one] | 638
O=C(c1cc(Cc2n[nH]c(=O)c3c2CCCC3)ccc1F)N1CCN(c2ccc(F)cc2F)CC1 [Example 524, 4-(3-{[4-(2,4-difluorophenyl)piperazin-1-yl]carbonyl}-4-fluorobenzyl)-5,6,7,8-tetrahydrophthalazin-1(2H)-one] | 5
CCC(C)C(C(=O)Nc1cccc(Cc2n[nH]c(=O)c3c2CCCC3)c1)c1ccccc1 (stereo not drawn) [Example 170, 3-methyl-N-(3-((4-oxo-3,4,5,6,7,8-hexahydrophthalazin-1-yl)methyl)phenyl)-2-phenylpentanamide] | 1700
Cc1nc2cc(C(=O)N3CCN(C(=O)c4cc(Cc5n[nH]c(=O)c6c5CCCC6)ccc4F)CC3)ccc2[nH]1 [Example 754, 4-[4-fluoro-3-({4-[(2-methyl-1H-benzimidazol-5-yl)carbonyl]piperazin-1-yl}carbonyl)benzyl]-5,6,7,8-tetrahydrophthalazin-1(2H)-one] | 0.6
CC(C)c1ccc(NC(=O)c2cccc(Cc3n[nH]c(=O)c4c3CCCC4)c2)cc1 [Example 334, N-(4-isopropylphenyl)-3-((4-oxo-3,4,5,6,7,8-hexahydrophthalazin-1-yl)methyl)benzamide] | 191
CN1CCN(CCNC(=O)c2cc(Cc3n[nH]c(=O)c4c3CCCC4)ccc2F)CC1 [Example 578, 2-fluoro-N-[2-(4-methylpiperazin-1-yl)ethyl]-5-[(4-oxo-3,4,5,6,7,8-hexahydrophthalazin-1-yl)methyl]benzamide] | 1.1
C[C@@H]1CN(C(=O)c2ccccc2)CCN1C(=O)c1cc(Cc2n[nH]c(=O)c3c2NCCC3)ccc1F [Example 616, 8-(3-{[(2R)-4-benzoyl-2-methylpiperazin-1-yl]carbonyl}-4-fluorobenzyl)-2,3,4,6-tetrahydropyrido[2,3-d]pyridazin-5(1H)-one] | 2.3
CN(C)CCNC(=O)c1cccc(Cc2n[nH]c(=O)c3c2CCCC3)c1 [Example 313, N-(2-(dimethylamino)ethyl)-3-((4-oxo-3,4,5,6,7,8-hexahydrophthalazin-1-yl)methyl)benzamide] | 95
CC(C)NC(=O)c1cccc(Cc2n[nH]c(=O)c3c2CCCC3)n1 [Example 82, N-isopropyl-6-((4-oxo-3,4,5,6,7,8-hexahydrophthalazin-1-yl)methyl)pyridine-2-carboxamide] | 691
CC(C)(C)C(=O)N1CCN(C(=O)c2cc(Cc3n[nH]c(=O)c4c3CCCC4)ccc2F)CC1 [Example 587, 4-(3-[4-(2,2-dimethylpropanoyl)piperazin-1-yl]carbonyl-4-fluorobenzyl)-5,6,7,8-tetrahydrophthalazin-1(2H)-one] | 1
O=C(c1cccnc1)N1CCN(C(=O)c2cc(Cc3n[nH]c(=O)c4c3CCCC4)ccc2F)CC1 [Example 722, 4-(4-fluoro-3-{[4-(pyridin-3-ylcarbonyl)piperazin-1-yl]carbonyl}benzyl)-5,6,7,8-tetrahydrophthalazin-1(2H)-one] | 1.2
O=C(c1cc(Cc2n[nH]c(=O)c3c2NCCC3)ccc1F)N1CCC(O)CC1 [Example 572, 8-{4-fluoro-3-[(4-hydroxypiperidin-1-yl)carbonyl]benzyl}-2,3,4,6-tetrahydropyrido[2,3-d]pyridazin-5(1H)-one] | 3
O=C(CCCc1ccccc1)Nc1cccc(Cc2n[nH]c(=O)c3c2CCCC3)c1 [Example 147, N-(3-((4-oxo-3,4,5,6,7,8-hexahydrophthalazin-1-yl)methyl)phenyl)-4-phenylbutanamide] | 41
NC(=O)C1CCN(C(=O)c2cccc(Cc3n[nH]c(=O)c4c3CCCC4)c2)CC1 [Example 430, 1-(3-((4-oxo-3,4,5,6,7,8-hexahydrophthalazin-1-yl)methyl)benzoyl)piperidine-4-carboxamide] | 5
Cc1ccc(F)cc1C(=O)Nc1cccc(Cc2n[nH]c(=O)c3c2CCCC3)c1 [Example 179, 5-fluoro-2-methyl-N-(3-((4-oxo-3,4,5,6,7,8-hexahydrophthalazin-1-yl)methyl)phenyl)benzamide] | 238
CC(=O)Nc1cccc(-c2cc(Cc3n[nH]c(=O)c4c3CCCC4)ccc2F)c1 [Example 248] | 2
CC1CCCN1Cc1cccc(-c2cccc(Cc3n[nH]c(=O)c4c3CCCC4)c2)c1 (stereo not drawn) [Example 129, 4-((3′-((2-methylpyrrolidin-1-yl)methyl)-1,1′-biphenyl-3-yl)methyl)-5,6,7,8-tetrahydrophthalazin-1(2H)-one] | 41
N[C@H]1CC(=O)N(c2cc(Cc3n[nH]c(=O)c4c3CCCC4)ccc2F)C1=O [Example 583, (3S)-3-amino-1-{2-fluoro-5-[(4-oxo-3,4,5,6,7,8-hexahydrophthalazin-1-yl)methyl]phenyl}pyrrolidine-2,5-dione] | 2.3
Nc1cc(Cc2n[nH]c(=O)c3cccnc23)ccc1F [Example 463, 8-(3-amino-4-fluorobenzyl)pyrido(2,3-d)pyridazin-5(6H)-one] | 1880
O=C(c1cccc(Cc2n[nH]c(=O)c3c2CCCC3)c1)N1CCN(c2ccc(F)cc2)CC1 [Example 445, 4-(3-((4-(4-fluorophenyl)piperazin-1-yl)carbonyl)benzyl)-5,6,7,8-tetrahydrophthalazin-1(2H)-one] | 6
O=C(c1cccc(Cc2n[nH]c(=O)c3c2CCCC3)c1)N1CCC(O)CC1 [Example 428, 4-(3-((4-hydroxypiperidin-1-yl)carbonyl)benzyl)-5,6,7,8-tetrahydrophthalazin-1(2H)-one] | 5
CN(C)C(=O)c1ccc(-c2cc(Cc3n[nH]c(=O)c4c3CCCC4)ccc2F)cc1 [Example 253, 2′-fluoro-N,N-dimethyl-5′-((4-oxo-3,4,5,6,7,8-hexahydrophthalazin-1-yl)methyl)-1,1′-biphenyl-4-carboxamide] | 229
CCOc1ccc(C(=O)Nc2cccc(Cc3n[nH]c(=O)c4c3CCCC4)c2)cc1OCC [Example 238, 3,4-diethoxy-N-(3-((4-oxo-3,4,5,6,7,8-hexahydrophthalazin-1-yl)methyl)phenyl)benzamide] | 47
